These results are taken from US8680108B2, “Substituted fused aryl and heteroaryl derivatives as PI3K inhibitors” (Incyte Corporation, priority 2009, dated 2014).

Counter-ions that a name gives are not always drawn. Like-named read-outs stand apart in the source and are kept apart here.

The assay has as its target T1, PI3Kδ (p110δ/p85α) (Homo sapiens, UniProt O00329).
T1 construct: purchased Millipore (Bedford, Mass.)
Put plainly: PI3Kδ scintillation proximity assay. Type of assay: biochemical. From the text: Materials: [γ-^33P]ATP (10 mCi/mL) was purchased from Perkin-Elmer (Waltham, Mass.). Lipid kinase substrate, D-myo-Phosphatidylinositol 4,5-bisphosphate (PtdIns(4,5)P2)D (+)-sn-1,2-di-O-octanoylglyceryl, 3-O-phospho linked (PIP2), CAS 204858-53-7, was purchased from Echelon Biosciences (Salt Lake City, Utah). PI3Kδ (p110δ/p85α) was purchased from Millipore (Bedford, Mass.). ATP, MgCl2, DTT, EDTA, MOPS and CHAPS were purchased from Sigma-Aldrich (St. Louis, Mo.). Wheat Germ Agglutinin (WGA) YSi SPA Scintillation Beads was purchased from GE healthcare life sciences (Piscataway, N.J.).
Assay: The kinase reaction was conducted in polystyrene 384-well matrix white plate from Thermo Fisher Scientific in a final volume of 25 μL. Inhibitors were first diluted serially in DMSO and added to the plate wells before the addition of other reaction components. The final concentration of DMSO in the assay was 0.5%. The PI3K assays were carried out at room temperature in 20 mM MOPS, pH 6.7, 10 mM MgCl2, 5 mM DTT and CHAPS 0.03%. Reactions were initiated by the addition of ATP, the final reaction mixture consisted of 20 μM PIP2, 20 μM ATP, 0.2 μCi [γ-^33P] ATP, 4 nM PI3Kδ. Reactions were incubated for 210 minutes and terminated by the addition of 40 μL SPA beads suspended in quench buffer: 150 mM potassium phosphate pH 8.0, 20% glycerol. 25 mM EDTA, 400 μM ATP. The final concentration of SPA beads is 1.0 mg/mL. After the plate sealing, plates were shaken overnight at room temperature and centrifuged at 1800 rpm for 10 minutes, the radioactivity of the product was determined by scintillation counting on Topcount (Perkin-Elmer). IC50 determination was performed by fitting the curve of percent control activity versus the log of the inhibitor concentration using the GraphPad Prism® 3.0 software.

T1 sequence (O00329 whole entry): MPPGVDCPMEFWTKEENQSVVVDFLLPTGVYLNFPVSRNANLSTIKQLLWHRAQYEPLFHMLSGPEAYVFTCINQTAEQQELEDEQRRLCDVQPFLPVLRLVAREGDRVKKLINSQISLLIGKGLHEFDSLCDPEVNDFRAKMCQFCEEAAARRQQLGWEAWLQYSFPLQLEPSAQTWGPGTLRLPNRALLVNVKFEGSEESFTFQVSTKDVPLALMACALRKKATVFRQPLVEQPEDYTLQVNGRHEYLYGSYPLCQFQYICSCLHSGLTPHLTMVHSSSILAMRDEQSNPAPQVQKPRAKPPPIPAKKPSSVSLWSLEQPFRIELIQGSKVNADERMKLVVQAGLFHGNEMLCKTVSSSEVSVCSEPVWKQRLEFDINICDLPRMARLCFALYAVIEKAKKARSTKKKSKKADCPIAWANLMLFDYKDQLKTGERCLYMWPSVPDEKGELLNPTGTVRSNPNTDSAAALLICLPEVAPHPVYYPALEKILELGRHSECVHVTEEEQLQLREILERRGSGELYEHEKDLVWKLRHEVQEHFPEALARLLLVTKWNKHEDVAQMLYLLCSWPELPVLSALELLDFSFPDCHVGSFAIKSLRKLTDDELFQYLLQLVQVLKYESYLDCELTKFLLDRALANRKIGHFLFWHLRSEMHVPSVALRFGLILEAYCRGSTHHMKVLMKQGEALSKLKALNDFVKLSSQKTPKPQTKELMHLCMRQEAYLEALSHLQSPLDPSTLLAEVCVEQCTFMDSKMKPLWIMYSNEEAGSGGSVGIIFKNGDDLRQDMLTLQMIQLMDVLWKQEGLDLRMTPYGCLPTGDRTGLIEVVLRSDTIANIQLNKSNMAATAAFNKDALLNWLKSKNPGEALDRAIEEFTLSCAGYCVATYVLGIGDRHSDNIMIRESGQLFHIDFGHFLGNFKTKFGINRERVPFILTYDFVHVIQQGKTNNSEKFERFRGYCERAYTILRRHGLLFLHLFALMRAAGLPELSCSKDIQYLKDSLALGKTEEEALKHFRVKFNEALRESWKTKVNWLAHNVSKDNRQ
T1 sequence (P27986 whole entry partner): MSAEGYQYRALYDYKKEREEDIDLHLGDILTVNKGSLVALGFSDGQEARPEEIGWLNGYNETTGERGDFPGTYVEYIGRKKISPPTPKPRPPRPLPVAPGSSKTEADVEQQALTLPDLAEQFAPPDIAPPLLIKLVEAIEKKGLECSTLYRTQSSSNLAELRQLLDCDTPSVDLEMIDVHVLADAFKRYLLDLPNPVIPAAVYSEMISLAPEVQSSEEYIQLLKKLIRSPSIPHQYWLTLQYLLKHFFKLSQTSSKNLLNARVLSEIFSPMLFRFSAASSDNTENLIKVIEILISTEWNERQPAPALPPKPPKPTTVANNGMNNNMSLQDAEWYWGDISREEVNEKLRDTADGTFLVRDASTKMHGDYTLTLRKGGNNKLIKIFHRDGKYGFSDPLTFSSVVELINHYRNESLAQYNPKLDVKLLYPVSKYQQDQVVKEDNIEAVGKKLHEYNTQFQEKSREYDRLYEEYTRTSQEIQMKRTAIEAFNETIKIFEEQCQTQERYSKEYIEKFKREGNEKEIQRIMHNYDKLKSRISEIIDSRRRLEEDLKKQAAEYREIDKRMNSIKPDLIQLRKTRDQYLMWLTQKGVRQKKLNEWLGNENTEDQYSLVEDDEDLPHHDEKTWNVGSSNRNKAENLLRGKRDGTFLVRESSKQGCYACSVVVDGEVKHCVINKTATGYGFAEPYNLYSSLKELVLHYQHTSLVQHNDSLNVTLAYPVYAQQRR

The IC50 is the concentration needed to halve the response being measured. A high value points to lower potency. For `COC(=O)N1CCN(c2c(C(C)Nc3ncnc4[nH]cnc34)cc(Cl)c3cccnc23)CC1` (stereo not shown) [Example 85, Methyl 4-{5-Chloro-7-[1-(9H-purin-6-ylamino)ethyl]quinolin-8-yl}piperazine-1-carboxylatebis(trifluoroacetate)], the IC50 is less than 50 nM.

Consider `CC(Nc1ncnc2[nH]cnc12)c1cc(Cl)c2cccnc2c1N1CCN(C2CC2)CC1` (stereo not shown) [Example 66, N-{1-[5-Chloro-8-(4-cyclopropylpiperazin-1-yl)quinolin-7-yl]ethyl}-9H-purin-6-amine tris(trifluoroacetate)], for which the IC50 was less than 50 nM.

On to `CC(Nc1ncnc2[nH]cnc12)c1cc(Cl)c2cccnc2c1N1CCN(C(=O)c2cccnc2)CC1` (stereo not shown) [Example 96, N-(1-{5-Chloro-8-[4-(pyridin-3-ylcarbonyl)piperazin-1-yl]quinolin-7-yl}ethyl)-9H-purin-6-amine tris(trifluoroacetate)], for which the IC50 was less than 50 nM.

In the case of `CC(Nc1ncnc2[nH]cnc12)c1cc(Cl)c2cnn(C)c2c1-c1cc(F)cc(F)c1` (stereo not shown) [Example 107], the IC50 is less than 50 nM.

Compound `CC(Nc1ncnc2[nH]cnc12)c1ccc2cccnc2c1-c1cncc(F)c1` (stereo not shown) [Example 9, N-{1-[8-(5-fluoropyridin-3-yl)quinolin-7-yl]ethyl}-9H-purin-6-amine tris-trifluoroacetate] had an IC50 of 500 to 1000 nM.

Compound `CCC(Nc1ncnc2[nH]cnc12)c1cc(Cl)c2ccnnc2c1-c1cccc(F)c1` (single isomer, unassigned) [Example 32, N-{1-[5-chloro-8-(3-fluorophenyl)cinnolin-7-yl]propyl}-9H-purin-6-amine] came in with an IC50 greater than 1000 nM.

The compound `CC(Nc1ncnc2[nH]cnc12)c1cc(Cl)c2ccnnc2c1-c1cc(F)cc(F)c1` (single isomer, unassigned) [Example 24, N-{1-[5-Chloro-8-(3,5-difluorophenyl)cinnolin-7-yl]ethyl}-9H-purin-6-amine] returned a 50% inhibitory concentration (IC50) greater than 1000 nM.

For `CC(Nc1ncnc2[nH]cnc12)c1cc(Cl)c2cccnc2c1N1CCN(C(=O)c2ccn(C)n2)CC1` (stereo not shown) [Example 101, N-[1-(5-Chloro-8-{4-[(1-methyl-1H-pyrazol-3-yl)carbonyl]piperazin-1-yl}quinolin-7-yl)ethyl]-9H-purin-6-amine bis(trifluoroacetate)], the half-inhibitory concentration (IC50) was less than 50 nM.

The compound `CC(Nc1ncnc2[nH]cnc12)c1cc(F)c2ccnnc2c1-c1cc(F)cc(F)c1` (single isomer, unassigned) [Example 29, N-{1-[8-(3,5-difluorophenyl)-5-fluorocinnolin-7-yl]ethyl}-9H-purin-6-amine trifluoroacetate] had a concentration for half-maximal inhibition (IC50) of 100 to 250 nM.

The compound `CC(Nc1nc(N)nc2[nH]cnc12)c1cc(F)c2ccnnc2c1-c1cccc(F)c1` (single isomer, unassigned) [Example 22, N(6)-{1-[5-Fluoro-8-(3-fluorophenyl)cinnolin-7-yl]ethyl}-9H-purine-2,6-diamine] yielded an IC50 of less than 50 nM.

In turn, `CC(Nc1ncnc2[nH]cnc12)c1cc(Cl)c2cccnc2c1N1CCC(CO)CC1` (stereo not shown) [Example 64, (1-{5-Chloro-7-[1-(9H-purin-6-ylamino)ethyl]quinolin-8-yl}piperidin-4-yl)methanol tris(trifluoroacetate)] yielded a half-maximal inhibitory concentration (IC50) of 100 to 250 nM.

`CC(Nc1ncnc2[nH]cnc12)c1cc(Cl)c2ccccc2c1N1CCC(O)CC1` (stereo not shown) [Example 45, 1-{4-Chloro-2-[1-(9H-purin-6-ylamino)ethyl]-1-naphthyl}piperidin-4-ol] had a half-inhibitory concentration (IC50) of less than 50 nM.

Take `CC(Nc1ncnc2[nH]cnc12)c1cc(Cl)c2cccnc2c1N1CCN(C(=O)C2CC2)CC1` (stereo not shown) [Example 84, N-(1-{5-Chloro-8-[4-(cyclopropylcarbonyl)piperazin-1-yl]quinolin-7-yl}ethyl)-9H-purin-6-amine bis(trifluoroacetate)]: the IC50 is less than 50 nM.

For the compound `Fc1cccc(-c2c(CNc3ncnc4[nH]cnc34)cc(Cl)c3ccnnc23)c1` [Example 31, N-{[5-Chloro-8-(3-fluorophenyl)cinnolin-7-yl]methyl}-9H-purin-6-amine trifluoroacetate], the IC50 was 500 to 1000 nM.

`CC(Nc1ncnc2[nH]cnc12)c1cc(Cl)c2cccnc2c1N1CCN(C(=O)c2ccncc2)CC1` (stereo not shown) [Example 98, N-{1-[5-Chloro-8-(4-isonicotinoylpiperazin-1-yl)quinolin-7-yl]ethyl}-9H-purin-6-amine tris(trifluoroacetate)] yielded a concentration for half-maximal inhibition (IC50) of less than 50 nM.

Compound `Cc1cc(C(C)Nc2ncnc3[nH]cnc23)c(-c2cc(F)cc(F)c2)c2nnccc12` (single isomer, unassigned) [Example 39, N-{1-[8-(3,5-difluorophenyl)-5-methylcinnolin-7-yl]ethyl}-9H-purin-6-amine] returned an IC50 greater than 1000 nM.

`CC(Nc1ncnc2[nH]cnc12)c1ccc2cccnc2c1-c1cc(F)cc(F)c1` (stereo not shown) [Example 6, N-{1-[8-(3,5-difluorophenyl)quinolin-7-yl]ethyl}-9H-purin-6-amine bis-trifluoroacetate] gave an IC50 of 500 to 1000 nM.

`CC(=O)N1CCC(C(=O)N2CCN(c3c(C(C)Nc4ncnc5[nH]cnc45)cc(Cl)c4cccnc34)CC2)CC1` (stereo not shown) [Example 94, N-[1-(8-{4-[(1-Acetylpiperidin-4-yl)carbonyl]piperazin-1-yl}-5-chloroquinolin-7-yl)ethyl]-9H-purin-6-amine bis(trifluoroacetate)] showed an IC50 of less than 50 nM.

As for `CC(Nc1ncnc2[nH]cnc12)c1cc(Cl)c2cccnc2c1N1CC[C@H](F)C1` (mixture of isomers) [Example 57, N-(1-{5-Chloro-8-[(3S)-3-fluoropyrrolidin-1-yl]quinolin-7-yl}ethyl)-9H-purin-6-amine bis(trifluoroacetate)], the 50% inhibitory concentration (IC50) lay in the range of 250 to 500 nM.

In turn, `Cc1cc(C(C)Nc2ncnc3[nH]cnc23)c(-c2cccc(F)c2)c2ncccc12` (stereo not shown) [Example 50, N-{1-[8-(3-Fluorophenyl)-5-methylquinolin-7-yl]ethyl}-9H-purin-6-amine] yielded an IC50 of 100 to 250 nM.

Turning to `CC(Nc1ncnc2[nH]cnc12)c1cc(Cl)c2cccnc2c1N1CCC(F)(F)CC1` (stereo not shown) [Example 47, N-{1-[5-Chloro-8-(4,4-difluoropiperidin-1-yl)quinolin-7-yl]ethyl}-9H-purin-6-amine], the 50% inhibitory concentration (IC50) is 500 to 1000 nM.

Regarding `CC(Nc1ncnc2[nH]cnc12)c1cc(Cl)c2cccnc2c1N1CCN(C(=O)C2CCC2)CC1` (stereo not shown) [Example 86, N-(1-{5-Chloro-8-[4-(cyclobutylcarbonyl)piperazin-1-yl]quinolin-7-yl}ethyl)-9H-purin-6-amine bis(trifluoroacetate)], the IC50 was less than 50 nM.

`CC(Nc1ncnc2[nH]cnc12)c1cc(Cl)c2cccnc2c1N1CCC(C#N)CC1` (stereo not shown) [Example 59, 1-{5-Chloro-7-[1-(9H-purin-6-ylamino)ethyl]quinolin-8-yl]piperidine-4-carbonitrile bis(trifluoroacetate)] showed a half-inhibitory concentration (IC50) of 100 to 250 nM.

Take `CC(Nc1ncnc2[nH]cnc12)c1cc(Cl)c2cccnc2c1N1CCC(O)CC1` (stereo not shown) [Example 43, 1-{5-Chloro-7-[1-(9H-purin-6-ylamino)ethyl]quinolin-8-yl}piperidin-4-ol]: the half-maximal inhibitory concentration (IC50) was less than 50 nM.

Compound `CC(Nc1ncnc2[nH]cnc12)c1cc(F)c2ccnnc2c1-c1cccc(F)c1` (stereo not shown) [Example 19, N-{1-[5-Fluoro-8-(3-fluorophenyl)cinnolin-7-yl]ethyl}-9H-purin-6-amine] gave an IC50 of 100 to 250 nM.

For `CC(Nc1ncnc2[nH]cnc12)c1cc(F)c2ccnnc2c1-c1cccc(F)c1` (single isomer, unassigned) [Example 21, N-{1-[5-Fluoro-8-(3-fluorophenyl)cinnolin-7-yl]ethyl}-9H-purin-6-amine], the IC50 is greater than 1000 nM.

Compound `CC(Nc1ncnc2[nH]cnc12)c1cc(Cl)c2cccnc2c1N1CCN(C(=O)c2ccc(F)cc2)CC1` (stereo not shown) [Example 91, N-(1-{5-Chloro-8-[4-(4-fluorobenzoyl)piperazin-1-yl]quinolin-7-yl}ethyl)-9H-purin-6-amine bis(trifluoroacetate)] had a concentration for half-maximal inhibition (IC50) of 100 to 250 nM.

In turn, `CC(Nc1ncnc2[nH]cnc12)c1ccc2ccccc2c1-c1cncc(F)c1` (stereo not shown) [Example 5, N-{1-[1-(5-fluoropyridin-3-yl)-2-napthyl]ethyl}-9H-purin-6-amine bis-trifluoroacetate] had an IC50 of less than 50 nM.

As for `CC(Nc1ncnc2[nH]cnc12)c1cc(Cl)c2ccncc2c1-c1cccc(F)c1` (stereo not shown) [Example 56, N-{1-[5-Chloro-8-(3-fluorophenyl)isoquinolin-7-yl]ethyl}-9H-purin-6-amine], the IC50 was less than 50 nM.

Take `CCC(=O)N[C@H]1CCN(c2c(C(C)Nc3ncnc4[nH]cnc34)cc(Cl)c3cccnc23)C1` (stereo partly drawn) [Example 77, N-((3S)-1-{5-Chloro-7-[1-(9H-purin-6-ylamino)ethyl]quinolin-8-yl}pyrrolidin-3-yl)propanamide tris(trifluoroacetate)]: the IC50 was greater than 1000 nM (separated isomer, 1st peak) and less than 50 nM (separated isomer, 2nd peak).
